Test results published in PubChem BioAssay (NCI).
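Abbreviation: GI50, concentration required for 50% inhibition of growth. The concentration for full growth arrest is given as TGI.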

Legend:
Test in all cases: growth of human tumour cells (NCI), 384-well format
U251 glioblastoma = test system: U251 glioblastoma
IGROV1 ovarian = test system: IGROV1 ovarian
MDA-MB-231 breast = test system: MDA-MB-231 breast
HCC-2998 colon = test system: HCC-2998 colon
TK-10 renal = test system: TK-10 renal
SNB-75 CNS = test system: SNB-75 CNS
COLO 205 colon = test system: COLO 205 colon
CCRF-CEM leukemia = test system: CCRF-CEM leukemia
SR leukemia = test system: SR leukemia
OVCAR-4 ovarian = test system: OVCAR-4 ovarian
A549 NSCLC = test system: A549 NSCLC
HCT-15 colon = test system: HCT-15 colon
RPMI-8226 leukemia = test system: RPMI-8226 leukemia

NC(=O)[C@@H](CC1CC1)[C@@H](CCC(F)(F)F)C(=O)N[C@H]1N=C(c2ccccc2)c2cccc(F)c2NC1=O
GI50 (U251 glioblastoma): 17.7 µM | TGI (U251 glioblastoma): 34 µM | GI50 (IGROV1 ovarian): 16.1 µM | TGI (IGROV1 ovarian): 40.4 µM | GI50 (MDA-MB-231 breast): 14.4 µM | TGI (MDA-MB-231 breast): 28 µM | GI50 (HCC-2998 colon): 23.8 µM | TGI (HCC-2998 colon): 84.3 µM | GI50 (TK-10 renal): 16.5 µM | TGI (TK-10 renal): 33 µM | GI50 (SNB-75 CNS): 10.7 µM | TGI (SNB-75 CNS): 25.4 µM | GI50 (COLO 205 colon): > 38.8 µM | TGI (COLO 205 colon): > 60.3 µM | GI50 (CCRF-CEM leukemia): 9.79 µM | TGI (CCRF-CEM leukemia): > 64.3 µM | GI50 (SR leukemia): 13.9 µM | TGI (SR leukemia): 27.1 µM | GI50 (OVCAR-4 ovarian): 13.3 µM | TGI (OVCAR-4 ovarian): 28.1 µM | GI50 (A549 NSCLC): 15.7 µM | TGI (A549 NSCLC): 49.4 µM | GI50 (HCT-15 colon): > 65.9 µM | TGI (HCT-15 colon): > 100 µM | GI50 (RPMI-8226 leukemia): 16.2 µM | TGI (RPMI-8226 leukemia): 36.2 µM
